{
  "source": "patent US20140213475A1",
  "about": "“METHODS OF DIAGNOSING CANCER USING EPIGENETIC BIOMARKERS” (University of Massachusetts, priority 2011, published 2014)",
  "key": {"[1]": {"tested_on": "normal human fibroblasts (Tig-1)", "test": "BMI-1/Ring1B (PRC1) CAP body formation in normal fibroblasts after treatment with DNA demethylating agent, immunofluorescence and 1q12 DNA FISH", "assay_type": "cell-based", "conditions": "for number of CAP positive cells: 0.2 ug/ml added fresh daily", "text": "(§1) FIGS. 6A-6E. […] FIG. 6C is a photomicrograph showing that longer treatment (8 days total) results in aberrant expression of Sat II RNA from other loci that are not associated with BMI-1 bodies.\n(§2) Importantly, aberrant Sat II RNA foci also appeared with longer term 5-aza-2d treatment, and importantly from sites distinct from 1q12 bearing the accumulated BMI-1 bodies (FIG. 6C). Aberrant Sat II expression was not seen in control or 1 day treated cells, was rare on day 3 and in ˜5-10% of cells by day 8. These findings reveal significant mechanistic insight into why PcG proteins so markedly accumulate at 1q12 in cancer but not normal cells, and provide important evidence of a link between two intensely studied areas of cancer epigenetics, DNA methylation and polycomb proteins.\n(§3) Twenty two cell lines were examined in this study (list in Supplement), and grown in conditions recommended by suppliers (ATCC, Cambrex, and Coriell). 5-azacytidine (6 mM) and 5-aza-2′deoxycytidine (0.2 ug/ml) was added fresh daily to asynchronously growing cultures and refreshed every day. Our standard fixation protocols have been detailed previously (Johnson et al., 1991; Tam et al., 2002), and summarized in the Supplement. Human effusions were fixed as for cultured cells and tissue blocks were cryosectioned onto cold glass slides (HistoBond+), and stored at −80 briefly until fixation. Of four fixations tested (Supplement) the one that gave best results was brief triton extraction followed by paraformaldehyde fixation and storage in ETOH.\nSimultaneous DNA/RNA and antibody detection: Most antibodies were used prior to RNA or DNA hybridization. Briefly, slides were incubated in the appropriate dilution of primary antibody in 1% BSA, 1xPBS and 1 U/ul RNasin, for 1 hour at 37 C. Slides were washed, and immunodetection was performed using 1:500 dilution of appropriately conjugated (Alexa 488 or Alexa 594, Invitrogen) secondary (anti-goat, mouse or rabbit) antibody, in 1×PBS with 1% BSA. The antibody signal is fixed in 4% paraformaldehyde for 10 min prior to hybridization (performed as detailed above), and all slides were counter stained with DAPI. Vectashield (Vector Labs) was used as mounting media for all fluorescence imaging."}, "[2]": {"tested_on": "normal human fibroblasts (Tig-1)", "test": "Aberrant Sat II RNA foci in normal fibroblasts after treatment with DNA demethylating agent, RNA FISH", "assay_type": "cell-based", "text": "as §1, §2, §3\nSat2-24 nt LNA was used for most images unless otherwise indicated. Several methods of Sat 2 probe labeling and detection were tested (see below). RNA-specific hybridization was carried out under non-denaturing conditions where the DNA was not accessible. Oligos were usually hybridized at 15% formamide conditions, but were also compared to higher stringency hybridizations at 40% and 50% formamide. […]"}, "Sat II on Chromosome 1": {"tested_on": "Sat II on Chromosome 1", "conditions": "Ji et al., 1997; cited from earlier work"}},
  "data": [
    {"smiles": "Nc1ncn([C@H]2C[C@H](O)[C@@H](CO)O2)c(=O)n1", "note": "[5-aza-2d, 5-aza-2′-deoxycytidine]", "values": [
      {"measurement": "number of CAP bodies per cell", "setting": "[1]; Day 1 of treatment", "value": "~2"},
      {"measurement": "number of CAP positive cells", "setting": "[1]; Day 1 of treatment", "value": 15, "unit": "%"},
      {"measurement": "number of CAP positive cells", "setting": "[1]; Day 3 of treatment", "value": 52, "unit": "%"},
      {"measurement": "number of CAP bodies per cell", "setting": "[1]; Day 8 of treatment", "value": "~4"},
      {"measurement": "number of CAP positive cells", "setting": "[1]; Day 8 of treatment", "value": 80, "unit": "%"},
      {"measurement": "aberrant Sat II expression (Sat II RNA foci)", "setting": "[2]; 1 day treated cells", "value": "not seen"},
      {"measurement": "aberrant Sat II expression (Sat II RNA foci)", "setting": "[2]; day 3 of treatment", "value": "rare"},
      {"measurement": "aberrant Sat II expression (Sat II RNA foci), cells positive", "setting": "[2]; day 8 of treatment", "value": "5-10 % of cells"},
      {"measurement": "demethylation of Sat II on Chromosome 1", "setting": "Sat II on Chromosome 1", "value": "effectively demethylate Sat II on Chromosome 1"}
    ]}
  ]
}
